Measured values taken from patent US20190381086A1, “INHIBITION OF NEDDYLATION USING GLYCYL-tRNA SYNTHETASE INHIBITORS” (The Scripps Research Institute, priority 2015, published 2019).

Legend:
NCI-H23 = experiment: NCI 60 Cell One-Dose Screen; type: cell-based, human; settings: NCI-H23, Non-Small Cell Lung Cancer; single dose 10^-5 M
[1] = mouse, in vivo
Experimental: GlySA (DMSO stock solution diluted by saline) were administrated to three month old female BALB CJ mice via tail vein injections. […] The GlySA concentration tested were 0.4 mg/kg (10 μM), 2.0 mg/kg (50 μM), 4.0 mg/kg (100 μM). N=3 for each group.
Animal experiments were also performed to study the use of GlySA to treat cancer. A maximum tolerant dosage assay of GlySA was conducted. GlySA (DMSO stock solution diluted by saline) were administrated to three month old female BALB CJ mice via tail vein injections. […] The GlySA concentration tested were 0.4 mg/kg (10 μM), 2.0 mg/kg (50 μM), 4.0 mg/kg (100 μM). N=3 for each group.

HCT-15 = experiment: NCI 60 Cell One-Dose Screen; type: cell-based, human; settings: HCT-15, Colon Cancer; single dose 10^-5 M
IGROV1 = type: cell-based; settings: IGROV1, Ovarian Cancer
UO-31 = type: cell-based; settings: UO-31, Renal Cancer
OVCAR-8 = type: cell-based; settings: OVCAR-8, Ovarian Cancer
UACC-62 = type: cell-based; settings: UACC-62, Melanoma
SNB-19 = type: cell-based; settings: SNB-19, CNS Cancer
SK-MEL-5 = type: cell-based; settings: SK-MEL-5, Melanoma
MOLT-4 [2] = experiment: NCI 60 Cell One-Dose Screen; type: cell-based, human; settings: MOLT-4, Leukemia; single dose 10^-5 M
EKVX = experiment: NCI 60 Cell One-Dose Screen; type: cell-based, human; settings: Non-Small Cell Lung Cancer, single dose 10^-5 M
K-562 = type: cell-based; settings: K-562, Leukemia
SF-295 = type: cell-based; settings: SF-295, CNS Cancer
MOLT-4 [3] = type: cell-based; settings: MOLT-4, Leukemia
A549/ATCC = type: cell-based; settings: Non-Small Cell Lung Cancer
HCT-116 = type: cell-based; settings: HCT-116, Colon Cancer
NCI-H226 = type: cell-based; settings: NCI-H226, Non-Small Cell Lung Cancer
BT-549 = type: cell-based; settings: BT-549, Breast Cancer
MDA-MB-231/ATCC = type: cell-based; settings: Breast Cancer
OVCAR-5 = experiment: NCI 60 Cell One-Dose Screen; type: cell-based, human; settings: OVCAR-5, Ovarian Cancer; single dose 10^-5 M
SF-268 [4] = experiment: NCI 60 Cell One-Dose Screen; type: cell-based, human; settings: SF-268, CNS Cancer; single dose 10^-5 M
SK-MEL-28 = type: cell-based; settings: SK-MEL-28, Melanoma
COLO 205 = experiment: NCI 60 Cell One-Dose Screen; type: cell-based, human; settings: COLO 205, Colon Cancer; single dose 10^-5 M
SF-268 [5] = type: cell-based; settings: SF-268, CNS Cancer
M14 = type: cell-based; settings: M14, Melanoma
MCF7 = experiment: NCI 60 Cell One-Dose Screen; type: cell-based, human; settings: MCF7, Breast Cancer; single dose 10^-5 M
[6] = Homo sapiens, read-out: LC50 (the source's name)

NCC(=O)NS(=O)(=O)OC[C@H]1O[C@@H](n2cnc3c(N)ncnc32)[C@H](O)[C@@H]1O [GlySA, glycylsulfamoyladenosine]
Growth inhibition count (%) (NCI-H23): 5.695%
survival of mice after four injections [1]: all were alive
GI50 (MDA-MB-468; Homo sapiens, MDA-MB-468): 741 nM
CC50 (MDA-MB-468; Homo sapiens, MDA-MB-468, read-out: LC50 (μM)): 7.59 µM
LC50/GI50 (MDA-MB-468; MDA-MB-468, Breast Cancer): 10.2
Growth inhibition count (%) (HCT-15): 11.42%
GI50 (IGROV1; Homo sapiens, IGROV-1): 3020 nM
CC50 (IGROV1; Homo sapiens, IGROV-1, read-out: LC50 (the source's name)): 47900 nM
LC50/GI50 (IGROV1): 15.8
GI50 (UO-31; Homo sapiens): 1700 nM
CC50 (UO-31; [6]): 6170 nM
LC50/GI50 (UO-31): 3.6
GI50 (OVCAR-8; Homo sapiens): 2460 nM
CC50 (OVCAR-8; [6]): > 100000 nM
LC50/GI50 (OVCAR-8): >40.7
GI50 (UACC-62; Homo sapiens): 1860 nM
LC50/GI50 (UACC-62): 4.2
GI50 (SNB-19; Homo sapiens): 380 nM
CC50 (SNB-19; [6]): 6920 nM
LC50/GI50 (SNB-19): 18.2
GI50 (SK-MEL-5; Homo sapiens): 1860 nM
LC50/GI50 (SK-MEL-5): 3.2
Growth inhibition count (%) (MOLT-4 [2]): 1.146%
Growth inhibition count (%) (EKVX): 44.07%
GI50 (K-562; Homo sapiens, K562): 3720 nM
LC50/GI50 (K-562): >26.9
GI50 (SF-295; Homo sapiens): 871 nM
CC50 (SF-295; [6]): 6920 nM
LC50/GI50 (SF-295): 7.9
GI50 (MOLT-4 [3]; Homo sapiens): 2630 nM
CC50 (MOLT-4 [3]; [6]): > 100000 nM
LC50/GI50 (MOLT-4 [3]): >38.0
GI50 (A549/ATCC; Homo sapiens): 2340 nM
CC50 (A549/ATCC; [6]): 19000 nM
LC50/GI50 (A549/ATCC): 8.1
LC50/GI50 (HCT-116): >31.6
GI50 (HCT-116; Homo sapiens): 3160 nM
CC50 (HCT-116; [6]): > 100000 nM
GI50 (NCI-H226; Homo sapiens): 2000 nM
CC50 (NCI-H226; [6]): 7080 nM
LC50/GI50 (NCI-H226): 3.5
LC50/GI50 (BT-549): 10.7
GI50 (BT-549; Homo sapiens): 2340 nM
LC50/GI50 (MDA-MB-231/ATCC): 34.7
GI50 (MDA-MB-231/ATCC; Homo sapiens): 525 nM
CC50 (MDA-MB-231/ATCC; [6]): 18200 nM
Growth inhibition count (%) (OVCAR-5): 0.2916%
Growth inhibition count (%) (SF-268 [4]): 3.776%
GI50 (SK-MEL-28; Homo sapiens): 1950 nM
CC50 (SK-MEL-28; [6]): 8910 nM
LC50/GI50 (SK-MEL-28): 4.6
Growth inhibition count (%) (COLO 205): 48.51%
GI50 (SF-268 [5]; Homo sapiens): 501 nM
LC50/GI50 (SF-268 [5]): >199.5
GI50 (OVCAR-3; Homo sapiens, OVCAR-3): 2000 nM
CC50 (OVCAR-3; Homo sapiens, OVCAR-3, read-out: LC50 (μM)): 10 µM
LC50/GI50 (OVCAR-3; OVCAR-3, Ovarian Cancer): 5.0
GI50 (M14; Homo sapiens): 1820 nM
CC50 (M14; [6]): 7240 nM
LC50/GI50 (M14): 4.0
Growth inhibition count (%) (MCF7): 8.271%
